# According to US6710190B1, “3-heteroarylalkyl substituted gaba analogs” (Warner-Lambert Company, priority 1999, dated 2004):
# Read-outs that look alike come from different tables or passages of the source.
# Tests used:
# [1] = test system: carrageenan-induced thermal hyperalgesia in the rat; assay: Pain model: carrageenan-induced thermal hyperalgesia in the rat (plantar test); format: in vivo; conditions: for Pain Model % MPE 1 h: 1 h after oral administration; for Pain Model % MPE 2h: 2 h after oral administration
# Description: Male Sprague-Dawley rats (180-250 g) were obtained from Bantin and Kingman, (Hull, U.K.). Animals were housed in groups of 6 to 10 under a 12 hour light/dark cycle (lights on at 7 hours, 0 minutes) with food and water ad libitum.
# Thermal hyperalgesia was assessed using the rat plantar test (Ugo Basile, Italy) following a modified method of Hargreaves, et al., 1988. Rats were habituated to the apparatus which consisted of three individual perspex boxes on an elevated glass table. A mobile radiant heat source located under the table was focused onto the desired paw and paw withdrawal latencies (PWL) recorded. PWL were taken 3 times for both hind paws of each animal, the mean of which represented baselines for right and left hind paws. At least 5 minutes were allowed between each PWL for an animal. The apparatus was calibrated to give a PWL of approximately 10 seconds. There was an automatic cutoff point of 20 seconds to prevent tissue damage. After baseline PWLs were determined, animals received an intraplantar injection of carrageenan (100 μL of 20 mg/mL) into the right hind paw. PWLs were reassessed following the same protocol as above 2-hour post-carrageenan (this time point represented the start of peak hyperalgesia) to ascertain that hyperalgesia had developed. Test compounds were administered orally (in a volume of 1 mL/kg) at 2.5 hours after carrageenan. PWLs were reassessed at various times after drug administration.
# [2] = test system: sound-induced tonic seizures in DBA/2 mice; assay: DBA2 mouse model: prevention of audiogenic seizures in DBA/2 mice; format: in vivo; design: concentration or dose not given beside the values; conditions: for DBA2 Mouse Model % Protect (1h): 1h after oral dosing; for DBA2 Mouse Model % Protect (2h): 2h after oral dosing
# Description: All procedures were carried out in compliance with the NIH Guide for the Care and Use of Laboratory Animals under a protocol approved by the Parke-Davis Animal Use Committee. Male DBA/2 mice, 3 to 4 weeks old, were obtained from Jackson Laboratories, Bar Harbour, Me. Immediately before anticonvulsant testing, mice were placed upon a wire mesh, 4 inches square suspended from a steel rod. The square was slowly inverted through 180 degrees and mice observed for 30 seconds. Any mouse falling from the wire mesh was scored as ataxic.
# Mice were placed into an enclosed acrylic plastic chamber (21 cm height, approximately 30 cm diameter) with a high-frequency speaker (4 cm diameter) in the center of the top lid. An audio signal generator (Protek model B-180) was used to produce a continuous sinusoidal tone that was swept linearly in frequency between 8 kHz and 16 kHz once each 10 msec. The average sound pressure level (SPL) during stimulation was approximately 100 dB at the floor of the chamber. Mice were placed within the chamber and allowed to acclimatize for 1 minute. DBA/2 mice in the vehicle-treated group responded to the sound stimulus (applied until tonic extension occurred, or for a maximum of 60 seconds) with a characteristic seizure sequence consisting of wild running followed by clonic seizures, and later by tonic extension, and finally by respiratory arrest and death in 80% or more of the mice. In vehicle-treated mice, the entire sequence of seizures to respiratory arrest lasts approximately 15 to 20 seconds.
# The incidence of all the seizure phases in the drug-treated and vehicle-treated mice was recorded, and the occurrence of tonic seizures were used for calculating anticonvulsant ED50 values by probit analysis. Mice were used only once for testing at each dose point. […] All drugs in the present study were dissolved in distilled water and given by oral gavage in a volume of 10 mL/kg of body weight. compounds that are insoluble will be suspended in 1% carboxymethocellulose. Doses are expressed as weight of the active drug moiety.
# [3] = target: T1, α2δ subunit derived from porcine brain tissue (Sus scrofa, UniProt A0A287BIN3); assay: [3H]gabapentin radioligand binding assay (α2δ assay)
# T1 construct: the α2δ subunit derived from porcine brain tissue was used; from tissue; host or cells: porcine brain tissue
# T1 sequence (A0A287BIN3 25-1109): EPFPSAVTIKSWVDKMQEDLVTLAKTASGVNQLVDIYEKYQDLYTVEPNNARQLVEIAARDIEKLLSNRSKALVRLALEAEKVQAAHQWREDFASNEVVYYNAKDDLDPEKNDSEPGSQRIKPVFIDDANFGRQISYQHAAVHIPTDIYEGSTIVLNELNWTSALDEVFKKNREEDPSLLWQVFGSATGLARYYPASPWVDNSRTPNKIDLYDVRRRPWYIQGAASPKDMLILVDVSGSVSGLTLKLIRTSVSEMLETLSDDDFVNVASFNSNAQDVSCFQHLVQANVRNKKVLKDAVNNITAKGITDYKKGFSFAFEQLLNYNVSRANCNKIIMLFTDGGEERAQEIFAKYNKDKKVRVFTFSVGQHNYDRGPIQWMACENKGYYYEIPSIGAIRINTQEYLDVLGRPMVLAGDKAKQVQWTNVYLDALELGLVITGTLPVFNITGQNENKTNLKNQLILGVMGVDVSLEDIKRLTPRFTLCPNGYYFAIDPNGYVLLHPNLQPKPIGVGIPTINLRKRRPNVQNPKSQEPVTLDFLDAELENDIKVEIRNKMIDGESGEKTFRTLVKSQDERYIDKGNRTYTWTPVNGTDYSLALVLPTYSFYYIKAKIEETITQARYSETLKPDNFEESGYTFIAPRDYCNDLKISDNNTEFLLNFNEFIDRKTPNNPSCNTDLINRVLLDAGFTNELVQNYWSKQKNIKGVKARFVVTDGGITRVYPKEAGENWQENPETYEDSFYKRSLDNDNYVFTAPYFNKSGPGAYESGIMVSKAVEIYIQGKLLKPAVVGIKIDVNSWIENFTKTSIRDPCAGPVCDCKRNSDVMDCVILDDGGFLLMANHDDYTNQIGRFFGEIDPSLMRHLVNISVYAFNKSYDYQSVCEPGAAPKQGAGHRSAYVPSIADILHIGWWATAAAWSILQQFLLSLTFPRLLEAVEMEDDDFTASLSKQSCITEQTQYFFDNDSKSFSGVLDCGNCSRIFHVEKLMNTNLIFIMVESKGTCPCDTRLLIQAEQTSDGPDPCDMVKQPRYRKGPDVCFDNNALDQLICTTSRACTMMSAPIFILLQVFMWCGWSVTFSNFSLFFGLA
Structure (SMILES),Pain Model % MPE 1 h [1] [%],Pain Model % MPE 2h [1] [%],DBA2 Mouse Model % Protect (1h) [2] [%],DBA2 Mouse Model % Protect (2h) [2] [%],IC50 [3] [nM],IC50 ([3]; read-out: α2δ Assay IC50) [nM]
NCC(CC(=O)O)Cc1ccco1 (stereo not shown),61.6,24.9,0,20,421,
NCC(CC(=O)O)Cc1ccsc1 (stereo not shown),,,40,60,,831
NCC(CC(=O)O)Cc1cccs1 (stereo not shown),31.9,18.1,20,40,,2670
